Laboratory results reported in patent US20240043615A1, “AMINO ACID POLYMER-PLATINUM ANTICANCER DRUG CONJUGATES” (priority 2020, published 2024).
Entries after “also recorded” stand apart in the source; their conditions may differ.

How the values were obtained:
[1] = test system: A2780 cisplatin-resistant cells (A2780-Cis); assay: Cytotoxicity in cisplatin-resistant A2780 cells; format: cell-based, human; details: different concentrations of Pt, 30 min
Experimental: (§1) A2780 cisplatin-resistant cells (A2780-Cis) and multiple drug resistant MDA-MB-231 cells (MDA-MB-231/MDR) were employed as models of drug resistant cells. 5×10^3 A2780-Cis or MDA-MB-231/MDR cells/well were seeded in a 96-well plate and cultured overnight. […] The results of this study are found in FIGS. 8A and 8B.

[2] = test system: multiple drug resistant MDA-MB-231 cells (MDA-MB-231/MDR); assay: Cytotoxicity in multiple drug resistant MDA-MB-231 cells; format: cell-based, human; details: different concentrations of Pt, 30 min
Experimental: as §1

[3] = test system: A2780 cisplatin-resistant tumor; details: i.v.; control 5% glucose
[4] = test system: MDA-MB-231 human breast cancer cells; assay: Cytotoxicity in MDA-MB-231 cells; format: cell-based; details: varying platinum concentration, 30 min
Experimental: (§2) CT26, A2780 or MDA-MB-231 cells were seeded in a 96-well plate and cultured overnight.

[5] = Body weight change in mice; details: single 8 mg (Pt)/kg injection
CT26 cells [6] = assay: Annexin-V/propidium iodide flow cytometry (apoptosis/necrosis); format: cell-based, mouse; details: 15 μg (Pt)/mL, different times
Experimental: CT26 cells were seeded in a 6-well plate and cultured overnight. […] Apoptosis: Annexin V^+ PI^−, Necrosis: PI^+.

A2780 tumor = assay: Anti-tumor efficacy, A2780 tumor-bearing mice; format: in vivo; details: i.v.
CT26 tumor [7] = details: CT26-tumor bearing mice, i.v., same dosage of oxaliplatin and P(G-A)-Asp-Pt
CT26 cells [8] = details: for cell viability of CT26 cells with respect to incubation time: 25 μg Pt/mL, different time points, CCK8; for cell viability of CT26 cells: varying platinum concentration, 30 min
Experimental: 5×10^3 CT26 cells/well were seeded in a 96-well plate and cultured overnight. […] Cell viability was detected by CCK8 assay. The concentration of each of the platinum derivatives was calculated based on platinum concentration.
as §2
The concentration of each of the platinum derivatives was calculated based on platinum concentration.

[9] = test system: A2780 human ovarian cancer cells; assay: Cytotoxicity in A2780 cells; format: cell-based; details: varying platinum concentration, 30 min
Experimental: as §2

CT26 cells [10] = assay: LysoTracker flow cytometry (lysosomal rupture); format: cell-based, mouse; details: treatment 1 h; LysoTracker deep red 100 nM 40 min
Experimental: CT26 cells were seeded in a 6-well plate and cultured overnight. […] Cells were then stained with LysoTracker deep red (100 nM) for 40 min. Cells were analyzed by flow cytometry.

[11] = Plasma pharmacokinetics in tumor-free mice (Pt by ICP-OES); details: 4 mg (Pt)/kg Pt-equivalent dosage
Experimental: The dosage was calculated based on Pt. Plasma samples were collected at different time points. Pt content was measured by ICP-OES.

[12] = Spleen toxicity evaluation in mice; details: mice after treatment
CT26 tumor [13] = assay: Anti-tumor efficacy, CT26 tumor-bearing mice; format: in vivo; details: i.v.
CT26 cells [14] = details: dynasore, chlorpromazine, genistein, cytochalasin D 40 min, then 25 μg (Pt)/mL for 30 min
CT26 cells [15] = details: short-time treatment
[16] = same Pt dosage of oxaliplatin and P(G-A)-Asp-Pt, control 5% glucose

N.N.[Cl][Pt][Cl] [cisplatin]
cell viability of A2780-Cis cells [1]: little effect | cell viability of MDA-MB-231/MDR cells [2]: little effect

O=C1[O][Pt]2([NH][C@@H]3CCCC[C@H]3[NH]2)[O]C1=O [oxaliplatin, reference compound]
A2780-Cis tumor growth [3]: partial anti-tumor efficacy on A2780-Cis tumors | cell viability of MDA-MB-231 cells [4]: little effect | body weight decrease [5]: more than 15% | apoptosis (Annexin V+ PI−) of CT26 cells (CT26 cells [6]): induced cell apoptosis gradually from 0.5 h to 18 h | A2780 tumor growth (A2780 tumor; [16]): partially slowed CT26 and A2780 tumor growth | Pt concentration in tumors versus time (CT26 tumor [7]): rapidly dropped over time | cell viability of CT26 cells with respect to incubation time (CT26 cells [8]): little effect within that time interval | cell viability of CT26 cells (CT26 cells [8]): little effect | cell viability of A2780 cells [9]: little effect | cell viability of A2780-Cis cells [1]: little effect | cell viability of MDA-MB-231/MDR cells [2]: little effect | LysoTracker signal (MFI) in CT26 cells (CT26 cells [10]): little effect | Pt concentration in plasma versus time (circulation time) [11]: quickly cleared from plasma | spleen appearance and weight [12]: dramatically shrunken with decreased weight | CT26 tumor growth (CT26 tumor [13]; [16]): partially slowed CT26 and A2780 tumor growth

Poly L-Glutamic and poly L-Aspartic acid (Glu:Asp = 7:3)-Platinum [P(G-A)-Pt]
cell viability of CT26 cells (CT26 cells [8]): best cytotoxicity to CT26 cells compared to the other platinum derivatives tested

Poly L-Glutamic and poly L-Aspartic acid (Glu:Asp = 7:3)-L-Aspartic-Platinum [P(G-A)-Asp-Pt]
A2780-Cis tumor growth [3]: significantly prohibited A2780-Cis tumor growth | cell viability of MDA-MB-231 cells [4]: able to kill these cancer cells | necrosis (PI+) of CT26 cells (CT26 cells [6]): triggered cancer cell necrosis quickly in 30 min | A2780 tumor growth (A2780 tumor; high dose): completely inhibited the growth | mice with complete response, A2780 tumors (A2780 tumor; high dose): over 40% | A2780 tumor growth (A2780 tumor; [16]): significantly inhibited tumor growth compared to the same oxaliplatin dosage | cell viability of CT26 cells with respect to incubation time (CT26 cells [8]): induce rapid cell death in as short as 30 min | IC50 in CT26 cells in different incubation times (CT26 cells [8]; 24 and 48 h, compared with oxaliplatin): lower IC50 | cell viability of CT26 cells (CT26 cells [8]): able to kill these cancer cells; also recorded: best cytotoxicity to CT26 cells compared to the other platinum derivatives tested; also recorded: better efficacy that P(G-A)-Glu-Pt and P(G-A)-D-Asp-Pt | cell viability of A2780 cells [9]: able to kill these cancer cells | cell viability of A2780-Cis cells [1]: able to kill these drug resistant cells in 30 min | viability of CT26 cells pre-treated with endocytosis/micropinocytosis inhibitors (CT26 cells [14]): partially restore cell viability | cell viability of MDA-MB-231/MDR cells [2]: able to kill these drug resistant cells in 30 min | LysoTracker signal (MFI) in CT26 cells (CT26 cells [10]): reduced LysoTracker signal | CT26 tumor growth (CT26 tumor [13]; high dose): completely inhibited the growth | mice with complete response, CT26 tumors (CT26 tumor [13]; high dose): over 40% | CT26 tumor growth (CT26 tumor [13]; [16]): significantly inhibited tumor growth compared to the same oxaliplatin dosage | morphological changes in CT26 cells (CT26 cells [15]): Obvious cancer cell swelling and disrupted plasma membrane
